We go through 1 compound from patent US12636372B2, “Immolative cell-penetrating complexes for nucleic acid delivery to the lung” (The Board of Trustees of the Leland Stanford Junior …, priority 2019, dated 2026).

The data set can be described thus: In vitro toxicity assay: MTT proliferation assay. The class given is cell-based. To be noted: 3 day incubation. An excerpt: FIGS. 3A-3F show the in vitro reporter and toxicity assays.
On the technique in general: Tetrazolium dyes change colour on reduction, which living cells bring about.

With `NCCCC[C@H](NCCO)C(=O)O` [hydroxyethyl lysine], the Cellular viability entry was “not affected”.
